In ChEMBL document CHEMBL2203181, “Microwave-assisted synthesis, molecular docking and antitubercular activity of 1,2,3,4-tetrahydropyrimidine-5-carbonitrile derivatives” (2012):

Legend:
Assay type in all cases: functional
Parameters in all cases: scale not given: the % may be the effect or the level left
[1] = tested on: Mycobacterium tuberculosis; assay: Antitubercular activity against streptomycin, isoniazid, rifampicin,ethambutol-resistant Mycobacterium tuberculosis clinical isolate assessed as reduction in RLU at 500 ug/mL after 72 hrs by luciferase reporter phage assay
[2] = tested on: Mycobacterium tuberculosis; assay: Antitubercular activity against streptomycin, isoniazid, rifampicin,ethambutol-resistant Mycobacterium tuberculosis clinical isolate assessed as reduction in RLU at 100 ug/mL after 72 hrs by luciferase reporter phage assay
[3] = tested on: Mycobacterium tuberculosis; assay: Antitubercular activity against streptomycin, isoniazid, rifampicin,ethambutol-resistant Mycobacterium tuberculosis clinical isolate assessed as reduction in RLU at 2 ug/mL after 72 hrs by luciferase reporter phage assay
[4] = tested on: Mycobacterium tuberculosis; assay: Antitubercular activity against streptomycin, isoniazid, rifampicin,ethambutol-resistant Mycobacterium tuberculosis clinical isolate assessed as reduction in RLU at 0.5 ug/mL after 72 hrs by luciferase reporter phage assay

Structure (SMILES) | Activity [1] | Activity [2] | Activity [3] | Activity [4]
N#Cc1c(-c2ccc(F)cc2)[nH]c(=O)[nH]c1=O | 47.86% | 38.38% | – | –
CO[C@H]1/C=C/O[C@@]2(C)Oc3c(C)c(O)c4c(O)c(c(/C=N/N5CCN(C)CC5)c(O)c4c3C2=O)NC(=O)/C(C)=C\C=C\[C@H](C)[C@H](O)[C@@H](C)[C@@H](O)[C@@H](C)[C@H](OC(C)=O)[C@@H]1C [RIFAMPIN] | – | – | 29.19% | –
N#Cc1c(-c2cccc(Cl)c2)[nH]c(=O)[nH]c1=O | 52.77% | 50.1% | – | –
COc1ccc(-c2[nH]c(=O)[nH]c(=O)c2C#N)cc1O | 33.49% | 25.47% | – | –
N#Cc1c(-c2ccc(Cl)cc2)[nH]c(=S)[nH]c1=O | 66.65% | 61.35% | – | –
NNC(=O)c1ccncc1 [ISONIAZID] | – | – | – | 89.6%
N#Cc1c(-c2ccc(Br)cc2)[nH]c(=S)[nH]c1=O | 74.91% | 38.03% | – | –
